Results reported in patent US4499091A, “1-Amino (or substituted amino)-1,4-dihydro-4-oxo-6-fluoro-7-heterylquinoline-3-carboxylic acids and their use as antibacterial agents” (Sterling Drug Inc., priority 1983, dated 1985).
≈ marks a conversion by molar mass, not a printed value.

Columns and labels:
Escherichia coli Vogel [1] = test: in vitro antibacterial activity, serial dilution (MIC); format: cell-based; conditions: 18-20 hours static incubation, read-out: Minimal Inhibitory Concentration (MIC)
Description: (§1) The in vitro antibacterial activity of the compounds of the invention was determined by conventional serial dilution procedures. Bacterial cultures were grown in tryptose phosphate broth or brain heart infusion broth (containing heat-inactivated normal horse serum for tests with S. pyogenes) overnight at 37° C. and subsequently diluted in double strength broth to provide bacterial inocula of about 2×10^5 cells/ml. Aqueous solutions of the compounds of the invention were prepared by dissolving the free acid form in 0.5N sodium hydroxide. The solutions were diluted with sterile distilled water to 1000 mcg/ml of compound in terms of the free acid. Serial two-fold dilutions of the compound stock solutions were prepared in water and 0.5 ml of each dilution was transferred to sets of tubes, one set for each bacterial inoculum.

[2] = tested on: Klebsiella pneumoniae 39645; test: as above; format: cell-based; conditions: 18-20 hours static incubation, read-out: Minimal Inhibitory Concentration (MIC)
Description: as §1

Proteus mirabilis MGH-1 = test: as above; format: cell-based; conditions: MGH1, 18-20 hours static incubation, read-out: Minimal Inhibitory Concentration (MIC)
Description: as §1

Proteus vulgaris 9920 = test: as above; format: cell-based; conditions: 18-20 hours static incubation, read-out: Minimal Inhibitory Concentration (MIC)
Description: as §1

[3] = tested on: Staphylococcus aureus Smith; test: as above; format: cell-based; conditions: 18-20 hours static incubation, read-out: Minimal Inhibitory Concentration (MIC)
Description: as §1

Escherichia coli Vogel [4] = test: in vivo antibacterial activity in mice infected with E. coli (PD50); set-up: species or system mouse (female) infected with Escherichia coli; conditions: sc, 168 h, mouse, E. coli, s.c., once one-half hour post infection, 7 days, read-out: Protective Dose (PD50)
Description: (§2) The in vivo antibacterial activity of the compounds of the invention was determined in female mice, 18-20 grams each, by the following procedure:
(§3) Aqueous solutions of the compounds to be tested were prepared by dissolving the free acid form in dilute sodium hydroxide and diluting the solution with distilled water to be desired volume.
(§4) Cultures of Escherichia coli Vogel prepared in brain heart infusion broth, cultures of Klebsiella pneumoniae 39645 grown in tryptose phosphate broth with 5% rabbit serum diluted in the same broth and cultures of Pseudomonas aeruginosa MGH-2 grown on brain heart infusion agar and suspended in physiological saline, were used to infect the mice as follows:
Mice infected with E. coli were medicated once (0.5 ml) one-half hour post infection, the test compound being administered by either the subcutaneous (s.c.) or oral (p.o.) route. Deaths were recorded daily for seven days.
(§5) Groups of ten animals each for four or five dose levels were thus treated and the number of survivors in each group recorded. The fifty percent protective dose values (PD50) were then calculated.

[5] = tested on: Klebsiella pneumoniae 39645; test: in vivo antibacterial activity in mice infected with K. pneumoniae (PD50); set-up: species or system mouse (female) infected with Klebsiella pneumoniae; conditions: Klebsiella pneumoniae, 39645, sc, 336 h; mouse, K. pneumoniae, s.c., pre- and postinfection, 14 days; read-out: Protective Dose (PD50)
Description: as §2, §3, §4
K. pneumoniae: mice were inoculated intramuscularly in the right hind leg with 0.2 ml of the bacterial test inoculum (2.05×10^4 cells/ml).
Mice infected with K. pneumoniae were medicated at the following times: seventeen hours and one hour preinfection, six hours postinfection and twice a day for the next three days. The test compound was administered by both subcutaneous (0.2 ml) and oral (0.5 ml) routes. Deaths were recorded daily for fourteen days.
as §5

[6] = tested on: Pseudomonas aeruginosa MGH-2; test: in vitro antibacterial activity, serial dilution (MIC); format: cell-based; conditions: MGH2, 18-20 hours static incubation, read-out: Minimal Inhibitory Concentration (MIC)
Description: as §1

[7] = tested on: Streptococcus pyogenes C203; test: as above; format: cell-based; conditions: 18-20 hours static incubation, read-out: Minimal Inhibitory Concentration (MIC)
Description: as §1

Structure (SMILES)	MIC (Escherichia coli Vogel [1]) [µg/mL]	MIC [2] [µg/mL]	MIC (Proteus mirabilis MGH-1) [µg/mL]	MIC (Proteus vulgaris 9920) [µg/mL]	MIC [3] [µg/mL]	ED50 (Escherichia coli Vogel [4]) [mg/kg]	ED50 [5] [mg/kg]	MIC [6] [µg/mL]	MIC [7] [µg/mL]
CCCN1CCN(c2cc3c(cc2F)c(=O)c(C(=O)O)cn3NC)CC1 [Example 11, 6-Fluoro-1,4-dihydro-1-methylamino-4-oxo-7-(4-propyl-1-piperazinyl)-3-quinolinecarboxylic acid]	0.25 (≈ 0.69 µM)	0.5 (≈ 1.38 µM)	1 (≈ 2.76 µM)	0.25 (≈ 0.69 µM)	1.95 (≈ 5.38 µM)	14.8	81.5	–	–
C=CCNn1cc(C(=O)O)c(=O)c2cc(F)c(N3CCN(C)CC3)cc21 [Example 12, 6-Fluoro-1,4-dihydro-7-(4-methyl-1-piperazinyl)-4-oxo-1-(2-propenylamino)-3-quinolinecarboxylic acid]	1 (≈ 2.77 µM)	1.95 (≈ 5.41 µM)	–	1 (≈ 2.77 µM)	–	18.9	141	15.6 (≈ 43.3 µM)	62.5 (≈ 173 µM)
CNn1cc(C(=O)O)c(=O)c2cc(F)c(N3CCOCC3)cc21 [Example 13, 6-Fluoro-1,4-dihydro-1-methylamino-7-(4-morpholinyl)-4-oxo-3-quinolinecarboxylic acid]	0.5 (≈ 1.56 µM)	1.95 (≈ 6.07 µM)	–	0.125 (≈ 0.389 µM)	1 (≈ 3.11 µM)	16.3	200	15.6 (≈ 48.6 µM)	15.6 (≈ 48.6 µM)
CNn1cc(C(=O)O)c(=O)c2cc(F)c(N3CCN(C(C)=O)CC3)cc21 [Example 14, 7-(4-Acetyl-1-piperazinyl)-6-fluoro-1,4-dihydro-1-methylamino-4-oxo-3-quinolinecarboxylic acid]	15.6 (≈ 43.1 µM)	–	15.6 (≈ 43.1 µM)	1.95 (≈ 5.38 µM)	–	100	100	62.5 (≈ 172 µM)	31.3 (≈ 86.4 µM)
CNn1cc(C(=O)O)c(=O)c2cc(F)c(N3CCCCC3)cc21 [Example 15, 6-Fluoro-1,4-dihydro-1-methylamino-4-oxo-7-(1-piperidinyl)-3-quinolinecarboxylic acid]	–	–	–	0.5 (≈ 1.57 µM)	1.95 (≈ 6.11 µM)	> 200	> 200	–	–
CNn1cc(C(=O)O)c(=O)c2cc(F)c(N3CCCC3)cc21 [Example 16, 6-Fluoro-1,4-dihydro-1-methylamino-4-oxo-7-(1-pyrrolidinyl)-3-quinolinecarboxylic acid]	1 (≈ 3.28 µM)	–	–	0.5 (≈ 1.64 µM)	0.5 (≈ 1.64 µM)	> 200	> 200	–	–
CNn1cc(C(=O)O)c(=O)c2cc(F)c(N3CCC(O)CC3)cc21 [Example 17, 6-Fluoro-1,4-dihydro-7-(4-hydroxy-1-piperidinyl)-1-methylamino-4-oxo-3-quinolinecarboxylic acid]	1.95 (≈ 5.82 µM)	–	–	0.125 (≈ 0.373 µM)	1.95 (≈ 5.82 µM)	12.5	200	–	31.3 (≈ 93.3 µM)
CNn1cc(C(=O)O)c(=O)c2cc(F)c(N3CCCC(O)C3)cc21 (stereo not drawn) [Example 18, 6-Fluoro-1,4-dihydro-7-(3-hydroxy-1-piperidinyl)-1-methylamino-4-oxo-3-quinolinecarboxylic acid]	–	–	–	0.25 (≈ 0.746 µM)	1.95 (≈ 5.82 µM)	38	> 200	31.3 (≈ 93.3 µM)	15.6 (≈ 46.5 µM)
CNn1cc(C(=O)O)c(=O)c2cc(F)c(N3CCCNCC3)cc21 [Example 19, 6-Fluoro-7-(hexahydro-1H-1,4-diazapin-1-yl)-1,4-dihydro-1-methylamino-4-oxo-3-quinolinecarboxylic acid]	–	15.6 (≈ 46.7 µM)	1.95 (≈ 5.83 µM)	1 (≈ 2.99 µM)	–	2.5	> 50	–	31.3 (≈ 93.6 µM)
CNn1cc(C(=O)O)c(=O)c2cc(F)c(N3CCSCC3)cc21 [Example 21, 6-Fluoro-1,4-dihydro-1-methylamino-4-oxo-7-(4-thiomorpholinyl)-3-quinolinecarboxylic acid]	0.5 (≈ 1.48 µM)	0.5 (≈ 1.48 µM)	2 (≈ 5.93 µM)	–	0.5 (≈ 1.48 µM)	> 200	–	4 (≈ 11.9 µM)	> 8
CN1CCN(c2cc3c(cc2F)c(=O)c(C(=O)O)cn3N(C)C=O)CC1 [Example 23, 6-Fluoro-1-(N-formylmethylamino)-1,4-dihydro-7-(4-methyl-1-piperazinyl)-4-oxo-3-quinolinecarboxylic acid]	1.95 (≈ 5.38 µM)	1.95 (≈ 5.38 µM)	–	1 (≈ 2.76 µM)	15.6 (≈ 43.1 µM)	10.4	> 200	–	–
